Where a name gives a salt, the structure may show the parent alone.
Assays:
RT-112 [1] = experiment: Cytotoxicity against NQO2 expressing human RT112 cells by MTT assay; type: functional, cell-based
RT-112 [2] = experiment: Cytotoxicity against NQO2 expressing human RT112 cells in presence of NRH cofactor by MTT assay; type: functional, cell-based
BE [3] = experiment: Cytotoxicity against low NQO1 protein expressing human BE cells by MTT assay; type: functional, cell-based
NCI-H460 = experiment: Cytotoxicity against high NQO1 protein expressing human H460 cells by MTT assay; type: functional, cell-based
[4] = target: NAD(P)H dehydrogenase [quinone] 1 (Homo sapiens) (UniProt P15559); experiment: Activity of recombinant human NQO1 assessed as specific activity
Chain of NAD(P)H dehydrogenase [quinone] 1 (Homo sapiens) (P15559 whole entry): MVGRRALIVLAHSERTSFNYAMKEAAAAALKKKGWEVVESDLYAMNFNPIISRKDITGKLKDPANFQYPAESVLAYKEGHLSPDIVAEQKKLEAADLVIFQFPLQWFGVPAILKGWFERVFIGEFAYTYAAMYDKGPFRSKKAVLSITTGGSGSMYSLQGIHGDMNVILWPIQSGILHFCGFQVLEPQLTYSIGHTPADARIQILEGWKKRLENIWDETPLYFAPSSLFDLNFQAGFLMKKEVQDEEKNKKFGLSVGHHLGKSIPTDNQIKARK

BE [5] = experiment: Selectivity ratio of IC50 for human H460 cells IC50 for human BE cells; type: functional
RT-112 [6] = experiment: Selectivity ratio of IC50 for RT112 cells in presence of cofactor NRH to IC50 for RT112 cells; type: functional, Homo sapiens

C[n+]1c2ccccc2cc2[n-]c3cc(Cl)c([N+](=O)[O-])cc3c21
IC50 (RT-112 [1]): 1030 nM | IC50 (RT-112 [2]): 1080 nM

C[n+]1c2ccccc2cc2[n-]c3cc([N+](=O)[O-])c(Br)cc3c21
IC50 (BE [3]): 580 nM | IC50 (RT-112 [1]): 360 nM | IC50 (NCI-H460): 380 nM | IC50 (RT-112 [2]): 320 nM | Activity [4]: 13.9 µmol/min/mg

C[n+]1c2ccccc2cc2[n-]c3ccccc3c21 [CRYPTOLEPINE HYDROCHLORIDE]
IC50 (BE [3]): 1280 nM | IC50 (RT-112 [1]): 820 nM | IC50 (NCI-H460): 1450 nM | IC50 (RT-112 [2]): 800 nM | Activity [4]: 4.53 µmol/min/mg

C[n+]1c2ccc(Cl)cc2cc2[n-]c3c([N+](=O)[O-])cc([N+](=O)[O-])cc3c21
IC50 (RT-112 [1]): 290 nM | IC50 (RT-112 [2]): 230 nM

C[n+]1c2ccc(F)cc2cc2[n-]c3c([N+](=O)[O-])cccc3c21
IC50 (RT-112 [1]): 1350 nM | IC50 (RT-112 [2]): 1100 nM | Activity [4]: 2.72 µmol/min/mg

C[n+]1c2ccc(F)cc2cc2[n-]c3ccc([N+](=O)[O-])cc3c21
IC50 (RT-112 [1]): 2130 nM | IC50 (RT-112 [2]): 1670 nM

C[n+]1c2ccccc2cc2[n-]c3c([N+](=O)[O-])cc(Br)cc3c21
IC50 (BE [3]): 780 nM | IC50 (RT-112 [1]): 240 nM | IC50 (NCI-H460): 590 nM | IC50 (RT-112 [2]): 150 nM | Activity [4]: 8.66 µmol/min/mg

Cn1c(/C=C/CO)c(CO)c2c1C(=O)C=C(N1CC1)C2=O [APAZIQUONE]
Ratio IC50 (BE [5]): 100 | IC50 (BE [3]): 600 nM | IC50 (NCI-H460): 5.9 nM | Activity [4]: 79.8 µmol/min/mg

C[n+]1c2ccc(F)cc2cc2[n-]c3c([N+](=O)[O-])cc([N+](=O)[O-])cc3c21
IC50 (RT-112 [1]): 450 nM | IC50 (RT-112 [2]): 190 nM | Activity [4]: 2.96 µmol/min/mg

C[n+]1c2ccc(Cl)cc2cc2[n-]c3c([N+](=O)[O-])cccc3c21
IC50 (RT-112 [1]): 880 nM | IC50 (RT-112 [2]): 820 nM

C[n+]1c2ccccc2cc2[n-]c3c([N+](=O)[O-])c(Cl)ccc3c21
IC50 (BE [3]): 1480 nM | IC50 (RT-112 [1]): 760 nM | IC50 (NCI-H460): 1880 nM | IC50 (RT-112 [2]): 640 nM | Activity [4]: 26.7 µmol/min/mg

NC(=O)c1cc(N2CC2)c([N+](=O)[O-])cc1[N+](=O)[O-] [TRETAZICAR]
IC50 (RT-112 [1]): 88800 nM | IC50 (RT-112 [2]): 150 nM | Activity [4]: 3.56 µmol/min/mg | Ratio IC50 (RT-112 [6]): 586

C[n+]1c2ccc(Cl)cc2cc2[nH]c3ccc([N+](=O)[O-])cc3c21
IC50 (BE [3]): 950 nM | IC50 (RT-112 [1]): 410 nM | IC50 (NCI-H460): 460 nM | IC50 (RT-112 [2]): 280 nM | Activity [4]: 18.9 µmol/min/mg

Reference: ChEMBL document CHEMBL1149672, “Synthesis of cryptolepine analogues as potential bioreducible anticancer agents” (Bioorg Med Chem, 2007)
